Experimental data taken from US11427553B2, “Dihydrooxadiazinones” (Bayer Aktiengesellschaft, priority 2017, dated 2022).
Like-named read-outs stand apart in the source and are kept apart here.

Legend:
human full length PDE3A = human full length PDE3A (Homo sapiens (Human), UniProt Q14432); test: Assay 4 PDE3A enzyme inhibition (3H-cAMP SPA); assay type: biochemical; conditions: Sf9 cell extract
In short: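 Hydrolysis of [8-3H]cAMP by Sf9-expressed full-length PDE3A was measured by scintillation proximity, with enzyme diluted to keep kinetics linear and substrate consumption below 70%. Incubation ran 60 min at room temperature at pH 7.5.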

SK-MEL-3 cells = test: Assay 1 cell proliferation measurement (CTG, 72 h), SK-MEL-3; assay type: cell-based, human; conditions: Assay 1, 72 h, Cell Titer Glo, read-out: SK-MEL-3 IC50 [nM] (melanoma)
Procedure: Cell Proliferation Measurement
The antiproliferative activity of the compounds of the general formula (I) was examined in vitro in human cancer cells. For this purpose, the appropriate number of cells (Hela: 800; SK-MEL-3: 1000; A549: 800) were plated in 384-well plates with appropriate growth medium ((A549: DMEM/Ham's F12 (Biochrom; #FG 4815 with stabile Glutamine), FCS 10% final (Biochrom; #S 0415); Hela: DMEM/Ham's F12 (Biochrom; #FG 4815 with stabile Glutamine), FCS 10% final (Biochrom; #S 0415); SK-MEL-3: McCoy's 5A (Biochrom; #F 1015), FCS 10% final (Biochrom; #S 0415), L-Alanyl-L-Glutamine final: 2 mM, (Biochrom; #K 0302)) and incubated at 37° C. overnight. After 24 h, cells on one plate (0 h plate) were treated with 30 μl/cavity of CTG solution (Promega Cell Titer Glo (catalogue #G755B and G756B)) and incubated at room temperature for 10 min, and luminescence was measured by means of a VICTOR V (Perkin Elmer), in order to determine cell viability on commencement of treatment. The cells on the test plate were treated with the compounds of the general formula (I) as and incubated at 37° C. for 72 h. The compounds were added to the cells by means of an HP D300 digital dispenser in a 10-step 2.5-fold dilution series generally starting at a maximum final drug concentration of 100 nM. As control, the cells were treated with vehicle (DMSO at 0.3% final concentration). After 72 h, the cells were treated with 30 μl/cavity of CTG solution (Promega Cell Titer Glo (catalogue #G755B and G756B)) and incubated at room temperature for 10 min. and luminescence was measured by means of a VICTOR V (Perkin Elmer), in order to determine cell viability at the end of treatment. The percentage effect on cell growth and the IC50 derived therefrom were determined for each test substance using the values from the 0 h plate […] and the DMSO control […]. The IC50 values were calculated using a 4-parameter fit.

human full length PDE3B = human full length PDE3B (Homo sapiens (Human), UniProt Q13370); test: Assay 5 PDE3B enzyme inhibition (3H-cAMP SPA); assay type: biochemical; conditions: Sf9 cell extract
human full length PDE3B, sequence (Q13370 whole entry): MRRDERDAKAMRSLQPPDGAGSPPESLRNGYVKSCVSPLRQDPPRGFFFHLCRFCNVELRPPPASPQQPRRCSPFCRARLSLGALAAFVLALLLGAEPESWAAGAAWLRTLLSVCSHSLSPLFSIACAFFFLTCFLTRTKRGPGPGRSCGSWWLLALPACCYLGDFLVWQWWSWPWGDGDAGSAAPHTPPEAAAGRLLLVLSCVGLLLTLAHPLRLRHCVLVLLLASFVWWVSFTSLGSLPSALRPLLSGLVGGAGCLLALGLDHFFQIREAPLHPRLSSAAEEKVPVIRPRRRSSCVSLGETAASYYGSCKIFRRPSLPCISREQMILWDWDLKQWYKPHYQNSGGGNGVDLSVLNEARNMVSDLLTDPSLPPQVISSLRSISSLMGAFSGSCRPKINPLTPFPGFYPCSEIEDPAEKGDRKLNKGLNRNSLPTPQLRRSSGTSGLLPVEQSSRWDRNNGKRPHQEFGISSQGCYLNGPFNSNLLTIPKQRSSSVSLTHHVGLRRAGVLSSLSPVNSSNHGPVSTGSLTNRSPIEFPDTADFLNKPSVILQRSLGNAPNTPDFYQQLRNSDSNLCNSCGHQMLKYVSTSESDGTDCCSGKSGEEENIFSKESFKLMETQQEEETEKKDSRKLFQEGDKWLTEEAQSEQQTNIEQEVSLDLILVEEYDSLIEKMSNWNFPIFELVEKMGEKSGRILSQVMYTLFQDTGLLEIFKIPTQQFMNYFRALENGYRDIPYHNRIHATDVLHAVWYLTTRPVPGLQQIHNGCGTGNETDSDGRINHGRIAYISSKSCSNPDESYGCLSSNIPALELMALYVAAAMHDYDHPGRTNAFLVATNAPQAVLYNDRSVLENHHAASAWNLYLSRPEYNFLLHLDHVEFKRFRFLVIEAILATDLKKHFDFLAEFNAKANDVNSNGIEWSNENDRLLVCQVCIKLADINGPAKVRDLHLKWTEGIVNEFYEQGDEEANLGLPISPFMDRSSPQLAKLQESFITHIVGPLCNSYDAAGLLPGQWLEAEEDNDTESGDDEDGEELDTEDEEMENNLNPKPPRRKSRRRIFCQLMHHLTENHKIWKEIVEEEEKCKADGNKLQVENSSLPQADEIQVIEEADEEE
In short: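 Hydrolysis of tritiated cAMP by Sf9-expressed full-length human PDE3B proceeded 60 min at room temperature in Tris buffer pH 7.5 containing Mg2+, EDTA and BSA, with enzyme dilution keeping substrate consumption below 70%. IC50 derived from percent activity versus log compound concentration.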

HeLa cells = test: Assay 1 cell proliferation measurement (CTG, 72 h), HeLa; assay type: cell-based, human; conditions: Assay 1, 72 h, Cell Titer Glo, read-out: HeLa IC50 [nM] (Cervical cancer)
In short: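 Seed cells, incubate overnight at 37 °C; measure baseline viability (CTG, 0 h plate); dose compound in a 10-step 2.5-fold series (max generally 100 nM final, DMSO 0.3%) for 72 h; read CTG luminescence; fit IC50 with 4 parameters.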

human full length PDE3A, sequence (Q14432 whole entry): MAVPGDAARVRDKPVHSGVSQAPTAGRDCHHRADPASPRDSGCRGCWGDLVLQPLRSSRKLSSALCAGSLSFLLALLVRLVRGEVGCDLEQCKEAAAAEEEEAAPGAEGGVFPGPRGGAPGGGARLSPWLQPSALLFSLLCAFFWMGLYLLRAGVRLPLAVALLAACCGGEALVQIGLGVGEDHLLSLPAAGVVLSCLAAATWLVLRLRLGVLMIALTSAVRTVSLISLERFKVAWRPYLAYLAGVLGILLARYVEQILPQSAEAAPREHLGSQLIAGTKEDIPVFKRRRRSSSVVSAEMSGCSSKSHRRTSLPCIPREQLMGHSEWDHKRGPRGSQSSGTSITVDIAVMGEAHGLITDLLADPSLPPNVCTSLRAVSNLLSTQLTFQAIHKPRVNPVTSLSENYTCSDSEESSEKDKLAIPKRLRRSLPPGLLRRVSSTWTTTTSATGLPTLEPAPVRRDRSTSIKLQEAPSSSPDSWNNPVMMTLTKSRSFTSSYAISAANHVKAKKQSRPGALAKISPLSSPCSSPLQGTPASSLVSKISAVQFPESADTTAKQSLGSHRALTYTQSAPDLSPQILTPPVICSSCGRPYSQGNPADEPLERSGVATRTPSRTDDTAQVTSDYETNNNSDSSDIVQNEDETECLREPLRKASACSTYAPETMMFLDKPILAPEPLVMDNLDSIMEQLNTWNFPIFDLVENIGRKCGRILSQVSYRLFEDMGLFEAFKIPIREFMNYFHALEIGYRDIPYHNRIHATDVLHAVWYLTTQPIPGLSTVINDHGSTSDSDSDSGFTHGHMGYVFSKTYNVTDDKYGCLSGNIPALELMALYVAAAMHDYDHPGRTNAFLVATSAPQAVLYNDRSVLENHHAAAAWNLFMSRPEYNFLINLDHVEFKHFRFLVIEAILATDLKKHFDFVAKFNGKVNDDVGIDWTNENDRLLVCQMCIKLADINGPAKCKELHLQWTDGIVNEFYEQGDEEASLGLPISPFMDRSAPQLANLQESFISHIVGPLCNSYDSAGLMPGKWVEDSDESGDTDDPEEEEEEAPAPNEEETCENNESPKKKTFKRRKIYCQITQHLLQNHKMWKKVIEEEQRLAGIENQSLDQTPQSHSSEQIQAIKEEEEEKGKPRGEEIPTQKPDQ

SMILES: O=C1NN=C(c2cc(F)c(N3CCOCC3)c(F)c2)CO1 [Example 21, 5-[3,5-Difluoro-4-(morpholin-4-yl)phenyl]-3,6-dihydro-2H-1,3,4-oxadiazin-2-one]
- IC50 (human full length PDE3A): 175 nM
- IC50 (SK-MEL-3 cells; Homo sapiens, SK-MEL3): > 67 nM
- IC50 (human full length PDE3B): 185 nM
- IC50 (HeLa cells; Homo sapiens, HeLa): 15 nM

SMILES: C[C@@H](O)CNc1ccc(C2=NNC(=O)OC2)cc1C(F)(F)F [Example 216, 5-[4-{[(2R)-2-Hydroxypropyl]amino}-3-(trifluoromethyl)phenyl]-3,6-dihydro-2H-1,3,4-oxadiazin-2-one]
- IC50 (human full length PDE3A): 103 nM
- IC50 (SK-MEL-3 cells; Homo sapiens, SK-MEL3): 7 nM
- IC50 (human full length PDE3B): 167 nM
- IC50 (HeLa cells; Homo sapiens, HeLa): 6 nM

SMILES: CC1OC(=O)NN=C1c1ccc(N2CCOCC2)c(F)c1 (racemic) [Example 119, (rac)-5-(3-Fluoro-4-morpholinophenyl)-6-methyl-3,6-dihydro-2H-1,3,4-oxadiazin-2-one]
- IC50 (human full length PDE3A): 36 nM
- IC50 (SK-MEL-3 cells; Homo sapiens, SK-MEL3): 7 nM
- IC50 (human full length PDE3B): 13 nM
- IC50 (HeLa cells; Homo sapiens, HeLa): 5 nM

SMILES: O=C1NN=C(c2ccc(N[C@H]3CCC[C@H]3O)c(C(F)(F)F)c2)CO1 [Example 261, 5-[4-{[(1S,2R)-2-Hydroxycyclopentyl]amino}-3-(trifluoromethyl)phenyl]-3,6-dihydro-2H-1,3,4-oxadiazin-2-one]
- IC50 (human full length PDE3A): 550 nM
- IC50 (SK-MEL-3 cells; Homo sapiens, SK-MEL3): > 100 nM
- IC50 (human full length PDE3B): 600 nM
- IC50 (HeLa cells; Homo sapiens, HeLa): 38 nM

SMILES: Cc1cc(-c2ccc(C3=NNC(=O)O[C@H]3C)cc2C(F)(F)F)ccn1 [Example 184, (6S)-6-Methyl-5-[4-(2-methylpyridin-4-yl)-3-(trifluoromethyl)phenyl]-3,6-dihydro-2H-1,3,4-oxadiazin-2-one]
- IC50 (human full length PDE3A): 66 nM
- IC50 (SK-MEL-3 cells; Homo sapiens, SK-MEL3): 6 nM
- IC50 (human full length PDE3B): 57 nM
- IC50 (HeLa cells; Homo sapiens, HeLa): 5 nM

SMILES: O=C1NN=C(c2ccc(-c3ccc(F)cn3)c(C(F)(F)F)c2)CO1 [Example 158, 5-[4-(5-Fluoropyridin-2-yl)-3-(trifluoromethyl)phenyl]-3,6-dihydro-2H-1,3,4-oxadiazin-2-one]
- IC50 (human full length PDE3A): 500 nM
- IC50 (SK-MEL-3 cells; Homo sapiens, SK-MEL3): 40 nM
- IC50 (human full length PDE3B): 720 nM
- IC50 (HeLa cells; Homo sapiens, HeLa): 22 nM

SMILES: O=C1NN=C(c2ccc(Cl)c(C(F)(F)F)c2)CO1 [Intermediate 64, 5-[4-Chloro-3-(trifluoromethyl)phenyl]-3,6-dihydro-2H-1,3,4-oxadiazin-2-one]
- IC50 (human full length PDE3A): 610 nM
- IC50 (SK-MEL-3 cells; Homo sapiens, SK-MEL3): 53 nM
- IC50 (human full length PDE3B): 490 nM
- IC50 (HeLa cells; Homo sapiens, HeLa): 29 nM

SMILES: Cn1c(C#N)ccc1-c1ccc(C2=NNC(=O)OC2)cc1C(F)(F)F [Example 50, 1-Methyl-5-[4-(2-oxo-3,6-dihydro-2H-1,3,4-oxadiazin-5-yl)-2-(trifluoromethyl)phenyl]-1H-pyrrole-2-carbonitrile]
- IC50 (human full length PDE3A): 260 nM
- IC50 (SK-MEL-3 cells; Homo sapiens, SK-MEL3): 19800 nM
- IC50 (human full length PDE3B): 210 nM
- IC50 (HeLa cells; Homo sapiens, HeLa): 81 nM

SMILES: Nc1ccc(-c2ccc(C3=NNC(=O)OC3)cc2C(F)(F)F)c(F)c1 [Example 44, 5-[4′-Amino-2′-fluoro-2-(trifluoromethyl)biphenyl-4-yl]-3,6-dihydro-2H-1,3,4-oxadiazin-2-one]
- IC50 (human full length PDE3A): 190 nM
- IC50 (SK-MEL-3 cells; Homo sapiens, SK-MEL3): 9 nM
- IC50 (human full length PDE3B): 200 nM
- IC50 (HeLa cells; Homo sapiens, HeLa): 14 nM

SMILES: O=C1NN=C(c2ccc(C3=CCCC3)c(F)c2)CO1 [Example 83, 5-[4-(Cyclopent-1-en-1-yl)-3-fluorophenyl]-3,6-dihydro-2H-1,3,4-oxadiazin-2-one]
- IC50 (human full length PDE3A): 100 nM
- IC50 (SK-MEL-3 cells; Homo sapiens, SK-MEL3): 6 nM
- IC50 (human full length PDE3B): 250 nM
- IC50 (HeLa cells; Homo sapiens, HeLa): 3 nM

SMILES: CC1CN(c2ccc(C3=NNC(=O)OC3)cc2F)CC(C)O1 (stereo not shown) [Example 24, 5-{4-[2,6-Dimethylmorpholin-4-yl]-3-fluorophenyl}-3,6-dihydro-2H-1,3,4-oxadiazin-2-one]
- IC50 (human full length PDE3A): 180 nM
- IC50 (SK-MEL-3 cells; Homo sapiens, SK-MEL3): > 100 nM
- IC50 (human full length PDE3B): 110 nM
- IC50 (HeLa cells; Homo sapiens, HeLa): 55 nM

SMILES: Cc1cc(C2=NNC(=O)OC2)ccc1Cl [Intermediate 76, 5-(4-Chloro-3-methylphenyl)-3,6-dihydro-2H-1,3,4-oxadiazin-2-one]
- IC50 (human full length PDE3A): 375 nM
- IC50 (SK-MEL-3 cells; Homo sapiens, SK-MEL3): 75 nM
- IC50 (human full length PDE3B): 130 nM
- IC50 (HeLa cells; Homo sapiens, HeLa): 40 nM

SMILES: CCCCCNc1ccc(C2=NNC(=O)OC2)cc1C(F)(F)F [Example 74, 5-[4-(Pentylamino)-3-(trifluoromethyl)phenyl]-3,6-dihydro-2H-1,3,4-oxadiazin-2-one]
- IC50 (human full length PDE3A): 42 nM
- IC50 (SK-MEL-3 cells; Homo sapiens, SK-MEL3): 23 nM
- IC50 (human full length PDE3B): 100 nM
- IC50 (HeLa cells; Homo sapiens, HeLa): 11 nM

SMILES: CC(C)(N)CNc1ccc(C2=NNC(=O)OC2)cc1C(F)(F)F [Example 321, 5-{4-[(2-amino-2-methylpropyl)amino]-3-(trifluoromethyl)phenyl}-3,6-dihydro-2H-1,3,4-oxadiazin-2-one]
- IC50 (human full length PDE3A): 290 nM
- IC50 (SK-MEL-3 cells; Homo sapiens, SK-MEL3): 54 nM
- IC50 (human full length PDE3B): 500 nM
- IC50 (HeLa cells; Homo sapiens, HeLa): > 100 nM

SMILES: O=C1NN=C(c2ccc(NC[C@@H]3CCCO3)c(C(F)(F)F)c2)CO1 [Example 259, 5-[4-({[(2S)-Oxolan-2-yl]methyl}amino)-3-(trifluoromethyl)phenyl]-3,6-dihydro-2H-1,3,4-oxadiazin-2-one]
- IC50 (human full length PDE3A): 34 nM
- IC50 (SK-MEL-3 cells; Homo sapiens, SK-MEL3): 3 nM
- IC50 (human full length PDE3B): 110 nM
- IC50 (HeLa cells; Homo sapiens, HeLa): 1 nM

SMILES: CN(C)CCNc1ccc(C2=NNC(=O)OC2)cc1C(F)(F)F [Example 323, 5-[4-{[2-(dimethylamino)ethyl]amino}-3-(trifluoromethyl)phenyl]-3,6-dihydro-2H-1,3,4-oxadiazin-2-one]
- IC50 (human full length PDE3A): > 280 nM
- IC50 (SK-MEL-3 cells; Homo sapiens, SK-MEL3): > 100 nM
- IC50 (human full length PDE3B): > 910 nM
- IC50 (HeLa cells; Homo sapiens, HeLa): > 84 nM

SMILES: CC1(F)CCN(c2ccc(C3=NNC(=O)OC3)cc2F)CC1 [Example 5, 5-[3-Fluoro-4-(4-fluoro-4-methylpiperidin-1-yl)phenyl]-3,6-dihydro-2H-1,3,4-oxadiazin-2-one]
- IC50 (human full length PDE3A): 139 nM
- IC50 (SK-MEL-3 cells; Homo sapiens, SK-MEL3): 5 nM
- IC50 (human full length PDE3B): 97 nM
- IC50 (HeLa cells; Homo sapiens, HeLa): 3 nM

SMILES: NC1CCC(Nc2ccc(C3=NNC(=O)OC3)cc2C(F)(F)F)CC1 (mixture of isomers) [Example 320, 5-[4-{[4-aminocyclohexyl]amino}-3-(trifluoromethyl)phenyl]-3,6-dihydro-2H-1,3,4-oxadiazin-2-one (mixture of stereoisomers)]
- IC50 (human full length PDE3A): 76 nM
- IC50 (SK-MEL-3 cells; Homo sapiens, SK-MEL3): > 100 nM
- IC50 (human full length PDE3B): 220 nM
- IC50 (HeLa cells; Homo sapiens, HeLa): > 100 nM

SMILES: Cc1cc(-c2ccc(C3=NNC(=O)OC3)cc2F)ccc1F [Example 86, 5-(2,4′-Difluoro-3′-methylbiphenyl-4-yl)-3,6-dihydro-2H-1,3,4-oxadiazin-2-one]
- IC50 (human full length PDE3A): 84 nM
- IC50 (SK-MEL-3 cells; Homo sapiens, SK-MEL3): 25 nM
- IC50 (human full length PDE3B): 210 nM
- IC50 (HeLa cells; Homo sapiens, HeLa): 6 nM

SMILES: CCNc1ccc(C2=NNC(=O)OC2)cc1C(F)(F)F [Example 67, 5-[4-(Ethylamino)-3-(trifluoromethyl)phenyl]-3,6-dihydro-2H-1,3,4-oxadiazin-2-one]
- IC50 (human full length PDE3A): 47 nM
- IC50 (SK-MEL-3 cells; Homo sapiens, SK-MEL3): 5 nM
- IC50 (human full length PDE3B): 63 nM
- IC50 (HeLa cells; Homo sapiens, HeLa): 3 nM

SMILES: C[C@H]1C[C@H](C)N1c1ccc(C2=NNC(=O)OC2)cc1C(F)(F)F (relative stereo) [Example 208, (cis or trans)-5-{4-[2,4-Dimethylazetidin-1-yl]-3-(trifluoromethyl)phenyl}-3,6-dihydro-2H-1,3,4-oxadiazin-2-one]
- IC50 (human full length PDE3A): 110 nM
- IC50 (SK-MEL-3 cells): 7 nM
- IC50 (human full length PDE3B): 140 nM
- IC50 (HeLa cells): 5 nM

SMILES: O=C1NN=C(c2ccc(C3=CC4CCC3C4)c(C(F)(F)F)c2)CO1 (racemic) [Example 154, (rac)-5-[4-(Bicyclo[2.2.1]hept-2-en-2-yl)-3-(trifluoromethyl)phenyl]-3,6-dihydro-2H-1,3,4-oxadiazin-2-one]
- IC50 (human full length PDE3A): 70 nM
- IC50 (SK-MEL-3 cells; Homo sapiens, SK-MEL3): 4 nM
- IC50 (human full length PDE3B): 120 nM
- IC50 (HeLa cells; Homo sapiens, HeLa): 2 nM
